Data as given in article PMC8297954 (Frontiers in Microbiology, 2021).
“Also recorded” adds a separate entry of the source. Where two headings read alike, the source gives them in different places.

Legend:
[1] = tested on: SARS CoV 3a protein; conditions: Xenopus oocytes ref Schwarz et al., 2014; cited from earlier work
[2] = tested on: viral protein U of human immunodeficiency type 1 virus; conditions: cited from earlier work
[3] = tested on: HEK293 cells
[4] = tested on: MHV; conditions: cited from earlier work
[5] = tested on: MHV E protein; conditions: cited from earlier work
[6] = tested on: HCoV-229E; conditions: cited from earlier work
[7] = tested on: HCoV-229E E protein; conditions: cited from earlier work
[8] = tested on: transmembrane domain of SARS CoV E protein; conditions: lipid bilayers ref Torres et al., 2007; cited from earlier work

Compound	inhibition of viral protein U [2]	effect on viability of control cells at increasing concentrations [3]	MTT pRK control ([3]; human)	other results
O=c1c(O)c(-c2ccc(O)cc2)oc2cc(O)cc(O)c12 [Kaempferol, kaempferol]	not	proliferative	5–50 ↑	inhibition of 3a ion channel [1]: blocks
CCCCC[C@H](O)CC(=O)CCc1ccc(O)c(OC)c1 [6-Gingerol, 6-gingerol]				MTT pRK control [3]: neutral
CCCCCCC[C@H](O)CC(=O)CCc1ccc(O)c(OC)c1 [8-Gingerol, 8-gingerol]			50 ↓	
NC(N)=NC(=O)c1nc(Cl)c(N2CCCCCC2)nc1N [HMA, 5-(N,N-hexamethylene)amiloride]		cytotoxic	10–50 ↓	inhibition of virus replication [4]: inhibits replication; inhibition of E protein ion channel conductance [5]: inhibits; inhibition of virus replication [6]: inhibits replication; inhibition of E protein ion channel conductance [7]: inhibits
O=C1C[C@@H](c2ccc(O)cc2)Oc2cc(O)cc(O)c21 [Naringenin, naringenin]			10–50 ↑	
O=c1cc(-c2ccc(O)cc2)oc2cc(O)cc(O)c12 [Apigenin, apigenin]		cytotoxic	5–10↑ 20–50↓	concentrations that were cytotoxic / induced cell death ([3]; human): 20 to 50 µM
Oc1ccc(/C=C/c2cc(O)cc(O)c2)cc1 [Resveratrol, resveratrol]				MTT pRK control [3]: neutral
O=c1c(O)c(-c2ccc(O)c(O)c2)oc2cc(O)cc(O)c12 [Quercetin, quercetin]	not	proliferative	10–50 ↑	
O=c1c(O[C@@H]2O[C@@H](CO)[C@H](O)[C@H]2O)c(-c2ccc(O)cc2)oc2cc(O)cc(O)c12 [juglanin]				inhibition of 3a ion channel [1]: most efficient
(–)epicatechin	not			
COc1ccc(-c2cc(=O)c3c(OC)c(OC)c(OC)c(OC)c3o2)cc1OC [Nobiletin, nobiletin]			5–50 ↑	
NC12CC3CC(CC(C3)C1)C2 [Amantadine, amantadine, reference compound]				MTT pRK control [3]: neutral; inhibition of wild-type transmembrane peptides [8]: inhibited
(–)epigallocatechin	not			
O=C(O[C@@H]1Cc2c(O)cc(O)cc2O[C@@H]1c1cc(O)c(O)c(O)c1)c1cc(O)c(O)c(O)c1 [EGCG, epigallocatechin gallate]			5–50 ↑	
O=c1c(-c2ccc(O)cc2)coc2cc(O)cc(O)c12 [Genistein, genistein]	inhibits; also recorded: able to inhibit	proliferative	20–50 ↑	
CC(N)C12CC3CC(CC(C3)C1)C2 (stereo not shown) [Rimantadine, rimantadine, reference compound]				MTT pRK control [3]: neutral
